Like-named read-outs stand apart in the source and are kept apart here.

The test system of assay [1] is MOLP-8 human multiple myeloma cell line. Nature of the assay: Caspase-Glo 3/7 assay in MOLP-8 cells. The following applies: Caspase-Glo 3/7, 2 hours incubation, averaged over all runs on all batches, read-out: MOLP8 AC50. It is filed as cell-based. The source says: MCL-1 is a regulator of apoptosis and is highly over-expressed in tumor cells that escape cell death. The assay evaluates the cellular potency of small-molecule compounds targeting regulators of the apoptosis pathway, primarily MCL-1, Bfl-1, Bcl-2, and other proteins of the Bcl-2 family. Protein-protein inhibitors disrupting the interaction of anti-apoptotic regulators with BH3-domain proteins initiate apoptosis.
The Caspase-Glo® 3/7 Assay is a luminescent assay that measures caspase-3 and -7 activities in purified enzyme preparations or cultures of adherent or suspension cells. The assay provides a proluminescent caspase-3/7 substrate, which contains the tetrapeptide sequence DEVD. This substrate is cleaved to release aminoluciferin, a substrate of luciferase used in the production of light. Addition of the single Caspase-Glo® 3/7 Reagent in an “add-mix-measure” format results in cell lysis, followed by caspase cleavage of the substrate and generation of a “glow-type” luminescent signal.
This assay uses the MOLP-8 human multiple myeloma cell line, which is sensitive to MCL-1 inhibition.
Cell cultures were maintained between 0.2 and 2.0×10^6 cells/mL. The cells were harvested by collection in 50 mL conical tubes. The cells were then pelleted at 500 g for 5 mins before removing supernatant and resuspension in fresh pre-warmed culture medium. The cells were counted and diluted as needed.
The assay reagent was prepared by transferring the buffer solution to the substrate vial and mixing. The solution may be stored for up to 1 week at 4° C. with negligible loss of signal.
Compounds were delivered in assay-ready plates (Proxiplate) and stored at −20° C. Assays always include 1 reference compound plate containing reference compounds. The plates were spotted with 40 nL of compounds (0.5% DMSO final in cells; serial dilution; 30 μM highest conc. 1/3 dilution, 10 doses, duplicates). The compounds were used at room temperature and 4 μL of pre-warmed media was added to all wells except column 2 and 23. The negative control was prepared by adding 1% DMSO in media. The positive control was prepared by adding the appropriate positive control compound in final concentration of 60 μM in media. The plate was prepared by adding 4 μL negative control to column 23, 4 μL positive control to column 2 and 4 μL cell suspension to all wells in the plate. The plate with cells was then incubated at 37° C. for 2 hours. The assay signal reagent is the Caspase-Glo solution described above, and 8 μL was added to all wells. The plates were then sealed and measured after 30 minutes.
The activity of a test compound was calculated as percent change in apoptosis induction as follows: […]

In assay [2] the target is Myeloid Cell Leukemia 1(Mcl-1) (Homo sapiens (Human), UniProt Q07820). Nature of the assay: Terbium labeled Mcl-1 HTRF binding assay with Cy5-labeled BIM BH3 peptide. The following applies: obtained after recalibration of the equipment; averaged values over several runs. The protocol:
Terbium labeled Myeloid Cell Leukemia 1(Mcl-1) homogeneous time-resolved fluorescence (HTRF) binding assay utilizing the BIM BH3 peptide (H2N-(C/Cy5Mal) WIAQELRRIGDEFN-OH) as the binding partner for Mcl-1.
This assay evaluated inhibition of the BH3 domain: Mcl-1 interaction by measuring the displacement of Cy5-labeled BIM BH3 peptide (H2N—(C/Cy5Mal) WIAQELRRIGDEFN-OH) in the HTRF assay format.
The following assay and stock buffers were prepared for use in the assay: (a) Stock buffer: 10 mM Tris-HCl, pH=7.5+150 mM NaCl, filtered, sterilized, and stored at 4° C.; and (b) 1× assay buffer, where the following ingredients were added fresh to stock buffer: 2 mM dithiothreitol (DTT), 0.0025% Tween-20, 0.1 mg/mL bovine serum albumin (BSA). The 1×Tb-Mcl-1+Cy5 Bim peptide solution was prepared by diluting the protein stock solution using the 1× assay buffer (b) to 25 pM Tb-Mcl-1 and 8 nM Cy5 Bim peptide.
Using the Acoustic ECHO, 100 nL of 100× test compound(s) were dispensed into individual wells of a white 384-well Perkin Elmer Proxiplate, for a final compound concentration of lx and final DMSO concentration of 1%. Inhibitor control and neutral control (NC, 100 nL of 100% DMSO) were stamped into columns 23 and 24 of assay plate. Into each well of the plate was then dispensed 10 μL of the 1×Tb-Mcl-1+Cy5 Bim peptide solution. The plate was centrifuged with a cover plate at 1000 rpm for 1 minute, then incubated for 60 minutes at room temperature with plates covered.
The TR-FRET signal was read on an BMG PHERAStar FSX MicroPlate Reader at room temperature using the HTRF optic module (HTRF: excitation: 337 nm, light source: laser, emission A: 665 nm, emission B: 620 nm, integration start: 60 μs, integration time: […]).
The BMG PHERAStar FSX MicroPlate Reader was used to measure fluorescence intensity at two emission wavelengths—665 nm and 620 nm—and report relative fluorescence units (RFU) for both emissions, as well as a ratio of the emissions (665 nm/620 nm)*10,000. The RFU values were normalized to percent inhibition as follows:
% inhibition=((NC−IC)−(compound−IC))/(NC−IC))*100
where IC (inhibitor control, low signal)=mean signal of 1×Tb-MCl-1+Cy5 Bim peptide+inhibitor control or 100% inhibition of Mcl-1; NC (neutral control, high signal)=mean signal 1×Tb-MCl-1+Cy5 Bim peptide with DMSO only or 0% inhibition An 11-point dose response curve was generated to determine IC50 values (using GenData) based on the following equation:
Y=Bottom+(Top−Bottom)/(1+10^((IogIC50−X)*HillSlope))
where Y=% inhibition in the presence of X inhibitor concentration; Top=100% inhibition derived from the IC (mean signal of Mcl-1+inhibitor control); Bottom=0% inhibition derived from the NC (mean signal of Mcl-1+DMSO); Hillslope=Hill coefficient; and IC50=concentration of compound with 50% inhibition in relation to top/neutral control (NC).
In this assay [L]=8 nM and Kd=10 nM
On the technique in general: In TR-FRET formats the signal depends on donor and acceptor labels being close together.

Myeloid Cell Leukemia 1(Mcl-1), sequence (Q07820 whole entry): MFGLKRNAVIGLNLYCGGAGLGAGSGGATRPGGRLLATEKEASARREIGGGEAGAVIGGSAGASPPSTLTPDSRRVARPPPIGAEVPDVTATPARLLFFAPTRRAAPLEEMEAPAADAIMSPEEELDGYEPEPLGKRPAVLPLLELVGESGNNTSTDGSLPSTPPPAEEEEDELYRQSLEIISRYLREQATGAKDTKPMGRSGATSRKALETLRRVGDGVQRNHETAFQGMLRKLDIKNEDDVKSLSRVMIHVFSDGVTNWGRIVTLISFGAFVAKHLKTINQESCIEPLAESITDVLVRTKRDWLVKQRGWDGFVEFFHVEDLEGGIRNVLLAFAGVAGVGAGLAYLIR

The term AC50 denotes the midpoint of the concentration-response curve, whichever way the signal moves. For orientation: Ki means a dissociation constant, usually derived from enzyme kinetics or from competition with a known ligand. The low end stands for a stronger hold on the target, the high end for a looser hold on the target. `COCC1(CO)/C(F)=C/C[C@H](C)[C@@H](C)S(=O)(=O)NC(=O)c2ccc3c(c2)N(C[C@@H]2CCN21)C[C@@]1(CCCc2cc(Cl)ccc21)CO3` (single isomer, unassigned) [Compound 38]: in assay [1], the AC50 is 152 nM. The compound further gave a Ki in assay [2] of 0.15 nM.
For the compound `COCC1(CO)/C(F)=C/C[C@H](C)[C@@H](C)S(=O)(=O)NC(=O)c2ccc3c(c2)N(C[C@@H]2CCN21)C[C@@]1(CCCc2cc(Cl)ccc21)CO3` (single isomer, unassigned) [Compound 39], in assay [1], the AC50 was found to be 630 nM. In assay [2], the inhibitory constant (Ki) stood at 1.84 nM.
For `COCCOCC1(CO)/C(F)=C/C[C@H](C)[C@@H](C)S(=O)(=O)NC(=O)c2ccc3c(c2)N(C[C@@H]2CCN21)C[C@@]1(CCCc2cc(Cl)ccc21)CO3` (single isomer, unassigned) [Compound 40], in that order: 194 nM and 0.16 nM.
For `COCCOCC1(CO)/C(F)=C/C[C@H](C)[C@@H](C)S(=O)(=O)NC(=O)c2ccc3c(c2)N(C[C@@H]2CCN21)C[C@@]1(CCCc2cc(Cl)ccc21)CO3` (single isomer, unassigned) [Compound 42], in that order: 730 nM and 0.9 nM.
Turning to `C[C@@H]1[C@@H](C)C/C=C(\F)[C@H](CN2CCN3CCOC[C@@H]3C2)N2CC[C@H]2CN2C[C@@]3(CCCc4cc(Cl)ccc43)COc3ccc(cc32)C(=O)NS1(=O)=O` [Compound 28], in assay [1] (Homo sapiens, MOLP-8, 2 h), the AC50 is 120 nM. For the same compound, the affinity in assay [2] corresponds to a Ki of 0.09 nM.
`C[C@@H]1[C@@H](C)C/C=C(\F)[C@H](COCCCN2CCOCC2)N2CCC[C@H]2CN2C[C@@]3(CCCc4cc(Cl)ccc43)COc3ccc(cc32)C(=O)NS1(=O)=O` [Compound 34]: the AC50 in assay [1] (Homo sapiens, MOLP-8, 2 h) came to 458 nM. Affinity in assay [2] was put at a Ki of 0.21 nM.
Turning to `C[C@@H]1[C@@H](C)C/C=C(\F)C(CO)(CO)N2CCC[C@H]2CN2C[C@@]3(CCCc4cc(Cl)ccc43)COc3ccc(cc32)C(=O)NS1(=O)=O` [Compound 35], the AC50 in assay [1] (Homo sapiens, MOLP-8, 2 h) worked out at 547 nM. Also, in assay [2], affinity was put at a Ki of 0.14 nM.
As to `C[C@@H]1[C@@H](C)C/C=C(\F)C(CO)(CO)N2CC[C@H]2CN2C[C@@]3(CCCc4cc(Cl)ccc43)COc3ccc(cc32)C(=O)NS1(=O)=O` [Compound 36], the AC50 in assay [1] (Homo sapiens, MOLP-8, 2 h) was determined as 2390 nM. Also, the Ki in assay [2] was determined as 0.23 nM.
For `COCC1(COC)/C(F)=C/C[C@H](C)[C@@H](C)S(=O)(=O)NC(=O)c2ccc3c(c2)N(C[C@@H]2CCN21)C[C@@]1(CCCc2cc(Cl)ccc21)CO3` [Compound 37], in that order: 253 nM and 0.45 nM.
